Reference: ChEMBL document CHEMBL1201862, “PubChem BioAssay data set” (2004)
Calls of active or inactive are those of the source.

Experiments:
[1] = target: T1, Zinc finger protein mex-5 (Caenorhabditis elegans, UniProt Q9XUB2); assay: potency of MEX-5 RNA-binding blockers – biochemical, C. elegans, fluorescence polarization, dose response (AID 1960)
T1 sequence (Q9XUB2 whole entry): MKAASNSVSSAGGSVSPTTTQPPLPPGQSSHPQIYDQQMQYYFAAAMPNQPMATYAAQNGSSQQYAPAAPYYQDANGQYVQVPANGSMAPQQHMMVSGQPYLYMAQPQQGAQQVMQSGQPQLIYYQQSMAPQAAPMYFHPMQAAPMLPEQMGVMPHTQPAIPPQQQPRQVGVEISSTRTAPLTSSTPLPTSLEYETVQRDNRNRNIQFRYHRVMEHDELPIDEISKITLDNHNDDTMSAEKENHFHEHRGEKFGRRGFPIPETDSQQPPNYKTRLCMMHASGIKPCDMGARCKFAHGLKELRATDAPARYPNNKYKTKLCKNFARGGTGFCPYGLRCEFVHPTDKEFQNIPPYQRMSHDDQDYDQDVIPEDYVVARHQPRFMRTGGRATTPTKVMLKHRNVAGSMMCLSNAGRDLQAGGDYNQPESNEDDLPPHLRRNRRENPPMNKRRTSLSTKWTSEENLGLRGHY

HEK293 [2] = assay: membrane integrity loss in HEK cells – cell-based, fluorescence, cytotoxicity control for IDE activator project, dose response (AID 588440); type: functional; conditions: Homo sapiens;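 also: cytotoxicity by LDH release measuring loss of membrane integrity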
[3] = target: T2, RNA-binding protein pos-1 (Caenorhabditis elegans, UniProt G5EF15); assay: disruptors of C. elegans POS-1 RNA interaction – biochemical, fluorescence polarization, dose response (AID 1964);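 also: purified POS-1 fused to maltose binding protein made in E. coli; potency of compounds blocking POS-1 binding to fluorescent RNA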
T2 sequence (G5EF15 whole entry): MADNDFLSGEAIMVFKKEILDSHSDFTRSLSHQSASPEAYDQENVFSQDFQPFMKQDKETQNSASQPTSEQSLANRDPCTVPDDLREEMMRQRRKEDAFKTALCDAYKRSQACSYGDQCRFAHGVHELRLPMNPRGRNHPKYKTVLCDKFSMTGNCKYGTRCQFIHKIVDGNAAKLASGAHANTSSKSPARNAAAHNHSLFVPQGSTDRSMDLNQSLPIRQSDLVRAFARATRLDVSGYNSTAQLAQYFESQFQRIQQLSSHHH

Insulin-degrading enzyme [4] = target: T3, Insulin-degrading enzyme (Homo sapiens, UniProt P14735); assay: recombinant IDE activation, cell-free – biochemical, fluorescence polarization, counter-screen for IDE activator project, dose response (AID 588681)
T3 sequence (P14735 whole entry): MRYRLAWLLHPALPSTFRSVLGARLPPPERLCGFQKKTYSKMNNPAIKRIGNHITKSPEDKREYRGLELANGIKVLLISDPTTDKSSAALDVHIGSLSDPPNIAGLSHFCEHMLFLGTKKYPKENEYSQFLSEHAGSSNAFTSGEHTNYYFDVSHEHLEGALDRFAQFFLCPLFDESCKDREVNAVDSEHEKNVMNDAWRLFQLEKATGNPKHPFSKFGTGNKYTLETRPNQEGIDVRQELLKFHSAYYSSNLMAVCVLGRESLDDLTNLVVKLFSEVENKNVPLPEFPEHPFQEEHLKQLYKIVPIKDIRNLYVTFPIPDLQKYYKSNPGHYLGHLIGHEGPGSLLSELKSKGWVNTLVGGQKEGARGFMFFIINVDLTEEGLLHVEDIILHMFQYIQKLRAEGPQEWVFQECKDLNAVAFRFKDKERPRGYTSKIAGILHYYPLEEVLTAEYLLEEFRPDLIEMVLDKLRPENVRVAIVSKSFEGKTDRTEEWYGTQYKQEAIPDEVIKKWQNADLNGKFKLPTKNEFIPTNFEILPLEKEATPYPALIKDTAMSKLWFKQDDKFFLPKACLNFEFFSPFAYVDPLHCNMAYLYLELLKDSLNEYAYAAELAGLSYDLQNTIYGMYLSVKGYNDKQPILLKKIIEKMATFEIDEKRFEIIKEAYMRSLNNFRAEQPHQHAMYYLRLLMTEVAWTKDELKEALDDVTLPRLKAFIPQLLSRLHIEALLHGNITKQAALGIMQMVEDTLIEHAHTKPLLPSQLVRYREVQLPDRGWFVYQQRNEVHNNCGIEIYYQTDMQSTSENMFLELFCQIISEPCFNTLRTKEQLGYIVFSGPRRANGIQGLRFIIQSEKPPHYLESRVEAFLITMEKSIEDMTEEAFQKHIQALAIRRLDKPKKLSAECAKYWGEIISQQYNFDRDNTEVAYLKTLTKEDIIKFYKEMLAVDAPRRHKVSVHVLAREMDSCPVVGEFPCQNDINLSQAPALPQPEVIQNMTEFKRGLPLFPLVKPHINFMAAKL

Insulin-degrading enzyme [5] = target: T3, Insulin-degrading enzyme; assay: cellular IDE activation of Abeta substrate cleavage – fluorescence polarization, HEK cells, dose response (AID 588439); type: functional, cell-based
[6] = NIH-3T3 fibroblast cytotoxicity, dose response, cytotoxicity control, cell-based, fluorescence, Alamar Blue, secondary assay (AID 2327); type: functional;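 also: NIH-3T3 mouse fibroblasts cultured with fluconazole at 8 µg/mL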
HEK293 [7] = assay: optical interference in Abeta FP readout, dose response, artefact control for IDE activator project, biochemical, fluorescence polarization (AID 588442); type: functional, cell-based; conditions: Homo sapiens
[8] = fluconazole-exposed Candida albicans growth modulators – fluorescence, retest, confirmation (AID 2467); type: functional, cell-based
[9] = target: T4, High affinity choline transporter 1 (Homo sapiens, UniProt Q9GZV3); assay: human choline transporter potentiators, potency – cell-based, 10-point CRC, membrane potential dye, dose response (AID 602376); type: functional
T4 sequence (Q9GZV3 whole entry): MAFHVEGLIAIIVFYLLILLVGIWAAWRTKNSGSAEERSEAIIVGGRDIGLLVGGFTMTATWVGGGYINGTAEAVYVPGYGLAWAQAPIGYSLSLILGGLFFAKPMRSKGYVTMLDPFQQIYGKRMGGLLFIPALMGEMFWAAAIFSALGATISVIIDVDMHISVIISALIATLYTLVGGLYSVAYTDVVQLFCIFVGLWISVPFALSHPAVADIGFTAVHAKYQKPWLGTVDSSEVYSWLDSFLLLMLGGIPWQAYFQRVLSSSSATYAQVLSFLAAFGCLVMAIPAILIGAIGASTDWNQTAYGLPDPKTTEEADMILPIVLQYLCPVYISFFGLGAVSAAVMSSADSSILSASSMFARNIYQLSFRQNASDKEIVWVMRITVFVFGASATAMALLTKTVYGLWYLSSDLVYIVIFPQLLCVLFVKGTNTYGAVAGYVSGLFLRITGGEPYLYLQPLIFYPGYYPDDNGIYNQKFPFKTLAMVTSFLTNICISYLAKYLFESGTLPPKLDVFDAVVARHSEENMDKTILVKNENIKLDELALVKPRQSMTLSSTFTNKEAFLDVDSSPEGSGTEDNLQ

Vero = assay: cells; type: functional; conditions: Chlorocebus sabaeus
[10] = target: 26S proteasome non-ATPase regulatory subunit 14 (Homo sapiens, UniProt O00487); assay: inhibition of proteasome subunit RPN11 – biochemical, fluorescence polarization, uHTS hits, confirmation (AID 602368); type: functional
Sequence of 26S proteasome non-ATPase regulatory subunit 14 (O00487 whole entry): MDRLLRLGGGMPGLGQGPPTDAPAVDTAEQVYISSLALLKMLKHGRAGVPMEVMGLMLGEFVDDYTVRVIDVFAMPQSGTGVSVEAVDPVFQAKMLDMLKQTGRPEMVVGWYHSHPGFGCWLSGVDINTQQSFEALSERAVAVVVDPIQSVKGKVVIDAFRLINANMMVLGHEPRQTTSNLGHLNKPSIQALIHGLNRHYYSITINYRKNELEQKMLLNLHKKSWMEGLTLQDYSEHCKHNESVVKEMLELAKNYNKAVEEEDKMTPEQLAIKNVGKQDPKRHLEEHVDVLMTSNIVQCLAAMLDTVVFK

[11] = target: 72 kDa type IV collagenase (Homo sapiens, UniProt P08253); assay: Dose Response validation of uHTS RPN11 inhibitor hits using a MMP-2 Fluorescence assay.; type: functional
Sequence of 72 kDa type IV collagenase (P08253 whole entry): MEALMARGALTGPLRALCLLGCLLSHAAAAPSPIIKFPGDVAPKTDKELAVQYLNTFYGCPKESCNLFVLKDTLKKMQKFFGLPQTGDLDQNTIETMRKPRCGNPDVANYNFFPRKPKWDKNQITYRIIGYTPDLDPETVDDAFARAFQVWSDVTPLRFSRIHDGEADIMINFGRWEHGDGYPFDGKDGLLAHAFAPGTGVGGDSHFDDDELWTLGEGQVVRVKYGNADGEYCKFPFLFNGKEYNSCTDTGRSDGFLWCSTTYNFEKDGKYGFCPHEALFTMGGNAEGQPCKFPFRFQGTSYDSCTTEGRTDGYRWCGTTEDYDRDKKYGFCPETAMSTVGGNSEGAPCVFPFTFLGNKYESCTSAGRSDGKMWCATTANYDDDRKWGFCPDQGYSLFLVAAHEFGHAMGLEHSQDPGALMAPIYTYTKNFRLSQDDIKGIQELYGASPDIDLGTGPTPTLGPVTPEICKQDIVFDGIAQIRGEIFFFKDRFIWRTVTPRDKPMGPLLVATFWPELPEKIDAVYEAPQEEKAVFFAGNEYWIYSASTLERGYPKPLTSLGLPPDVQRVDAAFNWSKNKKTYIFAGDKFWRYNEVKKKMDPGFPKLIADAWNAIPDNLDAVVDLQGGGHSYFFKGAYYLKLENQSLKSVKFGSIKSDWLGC

[12] = microbe, parasite or virus in culture; type: functional; conditions: Mycobacterium tuberculosis
Prothrombin = Prothrombin (Bos taurus, UniProt P00735); assay: thrombin protease inhibitors – biochemical, fluorescence polarization, uHTS hits, dose response (AID 602369); type: functional
[13] = target: Protein disulfide-isomerase (Homo sapiens, UniProt P07237); assay: inhibition of PDI-driven insulin aggregation – biochemical, turbidity, absorbance, cherry-picked samples, dose response (AID 602350); type: functional
[14] = target: T5, ATP-dependent translocase ABCB1 (Homo sapiens, UniProt P08183); assay: P-gp JC-1 efflux blockade concentration-response – Jurkat-DNR cells, flow cytometry, set 2, dose response (AID 504569); type: functional; conditions: read-out: EC50_MICROM_;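 also: potency of pump inhibitors that raise cellular JC-1 green fluorescence up to the nicardipine level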
T5 sequence (P08183 whole entry): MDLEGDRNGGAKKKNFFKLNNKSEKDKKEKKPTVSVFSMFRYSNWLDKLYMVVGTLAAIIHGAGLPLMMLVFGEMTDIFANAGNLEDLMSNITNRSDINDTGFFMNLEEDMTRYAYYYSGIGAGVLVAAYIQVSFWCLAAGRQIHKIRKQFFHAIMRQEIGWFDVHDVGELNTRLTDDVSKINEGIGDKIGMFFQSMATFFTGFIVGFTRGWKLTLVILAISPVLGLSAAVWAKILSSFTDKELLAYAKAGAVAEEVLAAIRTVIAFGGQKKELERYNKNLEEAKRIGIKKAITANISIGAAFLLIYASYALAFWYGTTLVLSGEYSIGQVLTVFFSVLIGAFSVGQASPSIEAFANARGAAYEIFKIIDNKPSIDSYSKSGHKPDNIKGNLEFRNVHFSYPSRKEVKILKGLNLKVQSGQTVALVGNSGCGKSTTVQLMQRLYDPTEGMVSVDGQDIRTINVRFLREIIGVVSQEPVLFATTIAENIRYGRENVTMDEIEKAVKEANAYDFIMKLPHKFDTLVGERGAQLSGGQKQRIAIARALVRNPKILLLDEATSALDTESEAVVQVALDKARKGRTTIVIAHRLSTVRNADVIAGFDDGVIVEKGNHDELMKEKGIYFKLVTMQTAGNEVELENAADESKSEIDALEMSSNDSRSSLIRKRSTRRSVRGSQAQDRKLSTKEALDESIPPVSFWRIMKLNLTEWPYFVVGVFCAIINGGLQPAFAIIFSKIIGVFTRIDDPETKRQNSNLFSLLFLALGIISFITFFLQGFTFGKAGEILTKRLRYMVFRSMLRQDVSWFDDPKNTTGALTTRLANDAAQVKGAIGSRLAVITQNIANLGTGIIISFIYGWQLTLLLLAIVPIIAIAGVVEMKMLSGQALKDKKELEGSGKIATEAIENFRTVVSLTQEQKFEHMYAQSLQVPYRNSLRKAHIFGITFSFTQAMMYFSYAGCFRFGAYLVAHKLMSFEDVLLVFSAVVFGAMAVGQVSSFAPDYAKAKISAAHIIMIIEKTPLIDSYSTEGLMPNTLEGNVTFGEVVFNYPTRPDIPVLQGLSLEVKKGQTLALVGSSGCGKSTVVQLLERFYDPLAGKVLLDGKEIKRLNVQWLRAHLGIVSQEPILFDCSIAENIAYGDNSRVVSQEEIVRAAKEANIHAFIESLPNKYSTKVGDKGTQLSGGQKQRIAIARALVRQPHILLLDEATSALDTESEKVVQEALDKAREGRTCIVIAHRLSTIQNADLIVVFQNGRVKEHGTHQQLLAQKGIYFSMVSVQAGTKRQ

[15] = target: T5, ATP-dependent translocase ABCB1; assay: inhibition of BCRP-mediated JC-1 efflux – Ig-MXP3 cells, flow cytometry, set 2, dose response (AID 504566); type: functional; conditions: read-out: EC50_MICROM_;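 also: flow cytometry median green fluorescence of retained JC-1 dye; potency of efflux pump inhibition measured as rising substrate retention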
Paired box protein Pax-8 = Paired box protein Pax-8 (Homo sapiens, UniProt Q06710); assay: PAX8 transcriptional activity inhibition in RMG-I – RMG-I cells, luciferase, cherry-pick, dose response (AID 687027); type: functional, cell-based;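 also: luciferase reporter driven by Pax8 target thyroperoxidase promoter measured by SteadyGlo luminescence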
Sequence of Paired box protein Pax-8 (Q06710 whole entry): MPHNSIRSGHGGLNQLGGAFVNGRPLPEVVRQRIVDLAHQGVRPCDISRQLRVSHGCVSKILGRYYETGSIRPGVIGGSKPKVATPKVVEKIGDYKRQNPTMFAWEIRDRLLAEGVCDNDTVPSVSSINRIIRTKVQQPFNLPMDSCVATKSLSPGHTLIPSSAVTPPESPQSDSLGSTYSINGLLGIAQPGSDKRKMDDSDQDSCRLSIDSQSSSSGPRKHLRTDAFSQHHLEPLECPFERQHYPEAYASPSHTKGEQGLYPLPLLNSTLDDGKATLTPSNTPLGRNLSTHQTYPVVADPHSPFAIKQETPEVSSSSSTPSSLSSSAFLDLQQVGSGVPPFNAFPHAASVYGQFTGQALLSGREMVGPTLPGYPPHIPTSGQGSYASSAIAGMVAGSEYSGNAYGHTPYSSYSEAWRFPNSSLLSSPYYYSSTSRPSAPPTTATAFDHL

HEK293 [16] = assay: EBV LMP1 TES2 canonical NF-kB signalling blockers – cell-based, HEK293, luciferase, cherry-pick, dose response (AID 588343); type: functional; conditions: Homo sapiens
[17] = cAMP pathway inhibition in counterscreen cell line – TR-FRET cAMP detection, counter-screen for MC4R biased antagonist project, dose response (AID 602305); type: functional, cell-based;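 also: U2OS cells stimulated with forskolin near its EC80 as the cAMP inducer; potency is for inhibition of forskolin-stimulated cAMP signaling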
H9c2 = assay: cells; type: functional, cell-based; conditions: Rattus norvegicus, H9c2, Myocardium;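 also: confirmatory concentration-response retest of ultra-high-throughput screening hits for modulation of myocardial damage; cell death induced by hydrogen peroxide oxidative stress; compound pretreatment for 60 min then peroxide exposure for 2 h; potency is for protecting the cells against peroxide damage rather than for killing them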
Melanocortin receptor 4 = Melanocortin receptor 4 (Homo sapiens, UniProt P32245); assay: inhibitors of MC4R cAMP signaling – cell-based, TR-FRET, biased antagonists, dose response (AID 602298); type: functional;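 also: antagonist potency against agonist-stimulated cAMP production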
Sequence of Melanocortin receptor 4 (P32245 whole entry): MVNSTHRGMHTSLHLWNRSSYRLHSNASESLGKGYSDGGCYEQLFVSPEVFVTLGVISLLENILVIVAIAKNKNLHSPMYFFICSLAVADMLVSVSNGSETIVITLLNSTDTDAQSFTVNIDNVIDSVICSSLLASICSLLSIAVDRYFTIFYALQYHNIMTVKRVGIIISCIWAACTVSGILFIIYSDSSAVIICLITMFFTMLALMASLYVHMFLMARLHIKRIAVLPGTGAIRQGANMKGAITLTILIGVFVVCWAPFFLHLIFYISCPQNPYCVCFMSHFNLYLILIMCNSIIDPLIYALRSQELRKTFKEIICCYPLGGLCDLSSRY

[18] = general cell-killing toxicity readout – plate reader, dry powder samples, cytotoxicity control for PAX8 inhibitor project, dose response (AID 743021); type: functional, cell-based
[19] = target: Glycogen synthase kinase-3 beta (Homo sapiens, UniProt P49841); assay: Inhibition of Human GSK-3 beta Activity Measured in Biochemical System Using Microfluidics - 2063-05_Inhibitor_Dose_DryPowder_Activity_Set2. [Related pubchem assays (depositor defined):AID2709]
Sequence of Glycogen synthase kinase-3 beta (P49841 whole entry): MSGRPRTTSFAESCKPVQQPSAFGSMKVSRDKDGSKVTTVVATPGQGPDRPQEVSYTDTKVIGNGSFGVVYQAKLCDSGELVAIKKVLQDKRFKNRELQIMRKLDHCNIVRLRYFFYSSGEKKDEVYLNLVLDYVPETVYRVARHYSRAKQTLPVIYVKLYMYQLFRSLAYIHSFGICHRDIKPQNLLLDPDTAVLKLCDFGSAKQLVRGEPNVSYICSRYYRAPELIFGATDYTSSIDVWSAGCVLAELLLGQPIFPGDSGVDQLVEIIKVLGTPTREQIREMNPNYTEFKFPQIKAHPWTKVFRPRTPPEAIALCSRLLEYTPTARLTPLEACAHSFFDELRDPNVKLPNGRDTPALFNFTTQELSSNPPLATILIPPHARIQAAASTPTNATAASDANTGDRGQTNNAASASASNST

[20] = target: Glycogen synthase kinase-3 alpha (Homo sapiens, UniProt P49840); assay: Inhibition of Human GSK-3 alpha Activity Measured in Biochemical System Using Microfluidics - 2063-06_Inhibitor_Dose_DryPowder_Activity_Set2. [Related pubchem assays (depositor defined):AID2709]
Sequence of Glycogen synthase kinase-3 alpha (P49840 whole entry): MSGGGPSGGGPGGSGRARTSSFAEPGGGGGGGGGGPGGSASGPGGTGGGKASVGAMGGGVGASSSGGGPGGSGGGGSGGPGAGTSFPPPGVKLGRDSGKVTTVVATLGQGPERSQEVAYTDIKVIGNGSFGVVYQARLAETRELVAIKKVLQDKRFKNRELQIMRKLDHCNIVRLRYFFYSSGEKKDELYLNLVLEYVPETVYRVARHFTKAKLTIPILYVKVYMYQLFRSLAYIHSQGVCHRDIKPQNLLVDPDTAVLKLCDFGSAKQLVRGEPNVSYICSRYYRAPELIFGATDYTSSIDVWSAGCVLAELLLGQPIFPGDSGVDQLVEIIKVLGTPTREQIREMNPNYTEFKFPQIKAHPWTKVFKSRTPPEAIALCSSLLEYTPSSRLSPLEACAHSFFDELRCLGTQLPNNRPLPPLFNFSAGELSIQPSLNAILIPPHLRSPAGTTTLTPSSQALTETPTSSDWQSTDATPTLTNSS

[21] = target: Cyclin-dependent kinase 5/CDK5 activator 1 (Homo sapiens, UniProt Q00535); assay: human CDK5 activity blockade – biochemical, microfluidic mobility shift, dry powder, selectivity assay for GSK-3 alpha inhibitor project, dose response (AID 588430)
Sequence of Cyclin-dependent kinase 5/CDK5 activator 1 (Q00535 whole entry): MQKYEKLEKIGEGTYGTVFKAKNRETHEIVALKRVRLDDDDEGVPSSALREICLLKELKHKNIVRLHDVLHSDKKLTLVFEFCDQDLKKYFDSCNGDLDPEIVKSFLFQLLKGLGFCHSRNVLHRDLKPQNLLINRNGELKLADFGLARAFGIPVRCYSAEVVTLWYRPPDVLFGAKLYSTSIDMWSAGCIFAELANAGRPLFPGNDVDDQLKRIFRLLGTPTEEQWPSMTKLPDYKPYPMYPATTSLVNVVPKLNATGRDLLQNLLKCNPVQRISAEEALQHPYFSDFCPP
Sequence of Cyclin-dependent kinase 5/CDK5 activator 1 (Q15078 whole entry, further chain): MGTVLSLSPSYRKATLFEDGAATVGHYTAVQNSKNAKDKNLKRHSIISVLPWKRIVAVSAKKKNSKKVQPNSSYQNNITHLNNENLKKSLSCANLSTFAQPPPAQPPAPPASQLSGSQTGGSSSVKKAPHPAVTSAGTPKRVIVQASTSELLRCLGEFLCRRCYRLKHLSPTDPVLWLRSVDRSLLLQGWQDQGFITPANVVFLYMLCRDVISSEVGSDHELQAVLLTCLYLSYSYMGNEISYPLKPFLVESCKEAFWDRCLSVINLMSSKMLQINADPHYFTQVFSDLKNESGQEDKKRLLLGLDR

For O=C1c2cccc3c(O)ccc(c23)C(=O)N1Cc1ccccc1, the EC50 [1] was 0.183 µM (inconclusive), the IC50 (HEK293 [2]) was > 89.2 µM (inactive) and the EC50 [3] was 2.62 µM (active). The EC50 (Insulin-degrading enzyme [4]) was > 54.7 µM (inactive), the EC50 (Insulin-degrading enzyme [5]) was > 54.7 µM (inactive) and the EC50 [6] was 85.7 µM (active). For the same compound, the EC50 (HEK293 [7]) was > 54.7 µM (inactive) and the EC50 [8] was 0.082 µM (active).

In the case of COc1cc2c(cc1OC)C(c1cccs1)N(C(S)=NC(C)C)CC2 (stereo unspecified), the EC50 [9] is reported as 17.5 µM (active).

With COc1cc(/C=C/C(O)=C2\C(=O)NC(=O)N(CCc3ccccc3)C2=O)ccc1O the CC50 (Vero) was 17.7 µM (active), the IC50 [10] was 29.2 µM (active) and the IC50 [11] was > 100 µM (inactive). The CC50 [12] was 15.9 µM (active) and the IC50 (Prothrombin) was 40.6 µM (active).

In the case of CC[C@]12c3[nH]c4cc(-c5ccco5)ccc4c3CCN1C(=O)[C@@H](CC(=O)NCc1ccc(OC)c(OC)c1)C[C@@H]2C(=O)N1CCN(C(=O)c2ccco2)CC1, the AC50 [13] is reported as 4.25 µM (active).

In the case of C#Cc1cc(N2CCN(C(=O)c3ccoc3)CC2)n2nc(-c3cccc(Cl)c3)cc2n1, the EC50 [14] is reported as 7.34 µM (active), the EC50 [15] is reported as 1.98 µM (active) and the AC50 (Paired box protein Pax-8) is reported as 3.79 µM (active). For the same compound, the AC50 (HEK293 [16]) was 13.4 µM (active), the IC50 [17] was > 64.6 µM (inactive) and the IC50 (H9c2) was > 79 µM (inactive). For the same compound, the IC50 (Melanocortin receptor 4) was > 64.6 µM (inactive) and the AC50 [18] was 4.43 µM (active).

With O=C1c2ccccc2-c2onc3ccc(NCCCN4CCNC4)c1c23 the AC50 [19] was 0.161 µM (active), the AC50 [20] was 0.52 µM (active) and the AC50 [21] was 76.2 µM (active).
